Test results published in patent US8471005B2 (Cephalon, Inc., priority 2008, dated 2013).
Read-outs that look alike come from different tables or passages of the source.

Columns and labels:
ALK = biological target: T1, ALK (Homo sapiens, UniProt Q9UM73); test: ALK Kinase Assay (ELISA/TRF, PLC-γ substrate); format: biochemical; details: read-out: ALK Potency
T1 construct: host or cells: baculovirus expression system
Outline: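 Read-out is time-resolved fluorescence from a Eu-N1-labeled PT66 antibody that binds phosphorylated PLC-γ, the substrate coated at 10 μg/mL in TBS. ALK at 30 ng/ml starts the reaction, which runs 15 minutes at 37° C.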

JAK2 = biological target: T2, JAK2 (Homo sapiens, UniProt O60674); test: Recombinant Human JAK2 Kinase Assay (TRF); format: biochemical; details: read-out: JAK2 Potency
T2 construct: host or cells: baculovirus expression system
T2 sequence (O60674 whole entry): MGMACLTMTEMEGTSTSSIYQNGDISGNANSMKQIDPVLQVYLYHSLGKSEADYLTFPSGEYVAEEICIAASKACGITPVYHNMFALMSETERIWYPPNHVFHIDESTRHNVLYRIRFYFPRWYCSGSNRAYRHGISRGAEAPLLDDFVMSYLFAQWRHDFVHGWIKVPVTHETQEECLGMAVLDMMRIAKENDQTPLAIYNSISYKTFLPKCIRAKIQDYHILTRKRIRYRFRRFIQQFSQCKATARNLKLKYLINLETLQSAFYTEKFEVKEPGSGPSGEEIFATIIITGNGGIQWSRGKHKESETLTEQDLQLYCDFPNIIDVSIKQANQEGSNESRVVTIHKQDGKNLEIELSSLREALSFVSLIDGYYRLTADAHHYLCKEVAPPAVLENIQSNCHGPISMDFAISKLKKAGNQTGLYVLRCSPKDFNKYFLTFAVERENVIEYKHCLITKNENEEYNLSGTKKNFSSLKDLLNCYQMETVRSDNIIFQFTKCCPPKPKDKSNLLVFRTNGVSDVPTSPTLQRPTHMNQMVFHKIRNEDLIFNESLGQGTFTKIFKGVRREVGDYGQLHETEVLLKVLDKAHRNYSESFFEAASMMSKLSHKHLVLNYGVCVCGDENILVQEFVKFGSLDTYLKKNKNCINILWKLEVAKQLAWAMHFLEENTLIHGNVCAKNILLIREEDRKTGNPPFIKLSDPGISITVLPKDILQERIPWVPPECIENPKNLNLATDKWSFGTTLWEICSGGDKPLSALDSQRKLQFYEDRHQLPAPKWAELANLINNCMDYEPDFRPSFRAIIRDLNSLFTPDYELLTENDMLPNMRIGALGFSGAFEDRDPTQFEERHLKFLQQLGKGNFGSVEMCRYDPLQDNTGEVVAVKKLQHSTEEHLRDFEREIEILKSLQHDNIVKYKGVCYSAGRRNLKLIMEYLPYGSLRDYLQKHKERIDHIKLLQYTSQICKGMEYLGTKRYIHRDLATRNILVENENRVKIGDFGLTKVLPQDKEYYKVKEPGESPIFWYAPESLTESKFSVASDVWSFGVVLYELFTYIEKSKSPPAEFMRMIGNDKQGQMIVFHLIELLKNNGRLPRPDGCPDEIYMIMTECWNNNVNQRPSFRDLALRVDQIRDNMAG
Outline: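 TRF read-out: Eu-N1 PY100 anti-phosphotyrosine antibody detects product. Enzyme is baculovirus-expressed JAK2 at 15 ng/ml; substrate is a biotinyl 15-mer peptide bound to Neutravidin-coated wells. Buffer 20 mM HEPES pH 7.2, 0.2 μM ATP, 1 mM MnCl2, 0.1% BSA, 2.5% DMSO final; 20 min, RT.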

[1] = ALK kinase inhibition, 1 μM ATP
[2] = JAK2 kinase inhibition, 0.2 μM ATP

T1 sequence (Q9UM73 19-1620): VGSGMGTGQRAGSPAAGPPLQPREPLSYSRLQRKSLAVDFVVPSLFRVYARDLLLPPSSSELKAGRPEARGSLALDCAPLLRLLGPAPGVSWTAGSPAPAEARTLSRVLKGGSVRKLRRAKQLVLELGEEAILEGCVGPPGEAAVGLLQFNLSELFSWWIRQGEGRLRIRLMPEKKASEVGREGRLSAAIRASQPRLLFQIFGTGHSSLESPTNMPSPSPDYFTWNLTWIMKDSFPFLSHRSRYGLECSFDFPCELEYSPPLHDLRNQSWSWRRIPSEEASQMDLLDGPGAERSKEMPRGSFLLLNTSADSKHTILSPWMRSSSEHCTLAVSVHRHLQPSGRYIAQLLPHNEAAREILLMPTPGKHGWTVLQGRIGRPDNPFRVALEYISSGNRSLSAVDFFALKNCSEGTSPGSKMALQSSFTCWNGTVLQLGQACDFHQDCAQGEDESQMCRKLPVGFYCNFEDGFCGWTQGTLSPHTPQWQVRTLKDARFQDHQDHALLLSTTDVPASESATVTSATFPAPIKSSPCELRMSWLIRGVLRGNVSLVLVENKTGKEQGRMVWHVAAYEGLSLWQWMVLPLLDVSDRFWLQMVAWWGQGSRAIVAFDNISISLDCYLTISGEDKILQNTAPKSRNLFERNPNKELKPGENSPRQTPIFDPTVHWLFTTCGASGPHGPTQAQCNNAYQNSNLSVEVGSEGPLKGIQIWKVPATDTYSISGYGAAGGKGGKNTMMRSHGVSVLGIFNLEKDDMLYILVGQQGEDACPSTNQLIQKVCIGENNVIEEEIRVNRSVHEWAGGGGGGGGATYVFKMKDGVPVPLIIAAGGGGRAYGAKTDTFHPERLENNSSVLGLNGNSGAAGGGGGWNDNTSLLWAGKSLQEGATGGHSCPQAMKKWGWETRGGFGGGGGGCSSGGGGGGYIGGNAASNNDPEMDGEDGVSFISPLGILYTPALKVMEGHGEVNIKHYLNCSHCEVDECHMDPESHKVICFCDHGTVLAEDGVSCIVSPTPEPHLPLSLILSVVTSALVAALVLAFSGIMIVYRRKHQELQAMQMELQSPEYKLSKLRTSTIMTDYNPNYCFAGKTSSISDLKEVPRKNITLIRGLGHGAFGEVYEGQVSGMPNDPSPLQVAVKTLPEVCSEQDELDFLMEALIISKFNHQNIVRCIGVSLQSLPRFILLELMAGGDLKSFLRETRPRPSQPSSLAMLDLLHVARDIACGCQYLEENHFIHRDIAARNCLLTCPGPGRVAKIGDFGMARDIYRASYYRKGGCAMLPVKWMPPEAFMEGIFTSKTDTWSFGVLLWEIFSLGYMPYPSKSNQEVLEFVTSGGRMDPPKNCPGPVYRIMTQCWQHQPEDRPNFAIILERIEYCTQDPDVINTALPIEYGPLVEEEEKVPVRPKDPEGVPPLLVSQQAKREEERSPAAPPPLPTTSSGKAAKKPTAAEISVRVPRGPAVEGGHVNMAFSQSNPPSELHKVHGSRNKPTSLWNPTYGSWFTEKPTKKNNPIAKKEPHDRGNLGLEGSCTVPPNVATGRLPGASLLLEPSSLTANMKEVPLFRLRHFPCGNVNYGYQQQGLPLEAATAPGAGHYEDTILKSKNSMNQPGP

Row | Compound | IC50 (ALK; ALK Kinase Inhibition) | IC50 (JAK2; JAK2 Kinase Inhibition) | IC50 (ALK; [1]) | IC50 (JAK2; [2])
1 | CN1CCN(C2CCN(c3ccc(Nc4ncc5cc6ccccc6n5n4)cc3)CC2)CC1 [Example 264, {4-[4-(4-Methyl-piperazin-1-yl)-piperidin-1-yl]-phenyl}-[1,2,4]triazino[1,6-a]indol-2-yl-amine] | 1000 to 10000 nM | < 100 nM |  | 
2 | COc1ccccc1-c1ccc2cnc(Nc3ccc4c(c3OC)CN(C3CCN(C)CC3)C4)nn12 [Example 853, [4-Methoxy-2-(1-methyl-piperidin-4-yl)-2,3-dihydro-1H-isoindol-5-yl]-[7-(2-methoxy-phenyl)-pyrrolo[2,1-f][1,2,4]triazin-2-yl]-amine] |  |  | < 100 nM | 100 to 1000 nM
3 | [7-(3-Chloro-phenyl)-pyrrolo[2,1-f][1,2,4]triazin-2-yl]-{4-[2-(4-ethyl-piperazin-1-yl)-ethoxy]-phenyl}-amine [Example 93] | < 100 nM | < 100 nM |  | 
4 | CN1CCN(c2ccc(Nc3ncc4ccc(-c5ccc(CN6CCS(=O)(=O)CC6)nc5)n4n3)cc2)CC1 [Example 1056, {7-[6-(1,1-Dioxo-1$1(6)-thiomorpholin-4-ylmethyl)-pyridin-3-yl]-pyrrolo[2,1-f][1,2,4]triazin-2-yl}-[4-(4-methyl-piperazin-1-yl)-phenyl]-amine] |  |  | 100 to 1000 nM | < 100 nM
5 | CN(c1ccccc1-c1ccc2cnc(Nc3ccc(N4CCC(O)CC4)cc3)nn12)S(C)(=O)=O [Example 635, N-(2-{2-[4-(4-Hydroxy-piperidin-1-yl)-phenylamino]pyrrolo[2,1-f][1,2,4]triazin-7-yl}phenyl)-N-methylmethanesulfonamide] |  |  | 100 to 1000 nM | < 100 nM
6 | C=Cc1cc(-c2ccc(S(C)(=O)=O)cc2)n2nc(Nc3ccc(N4CCN(C)CC4)cc3)ncc12 [Example 104, [7-(4-Methanesulfonyl-phenyl)-5-vinyl-pyrrolo[2,1-f][1,2,4]triazin-2-yl]-[4-(4-methyl-piperazin-1-yl)-phenyl]-amine] | 1000 to 10000 nM | < 100 nM |  | 
7 | CS(=O)(=O)c1cccc(-c2ccc3cnc(Nc4ccc(N5CCC(CO)CC5)cc4)nn23)c1 [Example 96, (1-{4-[7-(3-Methanesulfonyl-phenyl)-pyrrolo[2,1-f][1,2,4]triazin-2-ylamino]-phenyl}-piperidin-4-yl)-methanol] | 100 to 1000 nM | < 100 nM |  | 
8 | CNC(=O)c1ccc(-c2ccc3cnc(Nc4cccc(N5CCOCC5)c4)nn23)cc1 [Example 194, N-Methyl-4-[2-(3-morpholin-4-yl-phenylamino)-pyrrolo[2,1-f][1,2,4]triazin-7-yl]-benzamide] | 100 to 1000 nM | < 100 nM |  | 

The next lines start with the values.

Row | IC50 (ALK; ALK Kinase Inhibition) | IC50 (JAK2; JAK2 Kinase Inhibition) | IC50 (ALK; [1]) | IC50 (JAK2; [2]) | Compound
9 | 100 to 1000 nM | < 100 nM |  |  | COc1cc(N2CCC(F)(F)CC2)ccc1Nc1ncc2ccc(-c3ccccc3OC)n2n1 [Example 1470, [4-(4,4-Difluoro-piperidin-1-yl)-2-methoxy-phenyl]-[7-(2-methoxy-phenyl)-pyrrolo[2,1-f][1,2,4]triazin-2-yl]-amine]
10 |  |  | 100 to 1000 nM | < 100 nM | COc1ccccc1-c1ccc2cnc(Nc3ccc4nn(CCN5CCOCC5)cc4c3)nn12 [Example 1351, [7-(2-Methoxy-phenyl)-pyrrolo[2,1-f][1,2,4]triazin-2-yl]-[2-(2-morpholin-4-yl-ethyl)-2H-indazol-5-yl]-amine]
11 |  |  | 100 to 1000 nM | < 100 nM | OCC1CCN(c2ccc(Nc3ncc4ccc(-c5cccc(Cl)c5)n4n3)cc2)CC1 [Example 1133, (1-{4-[7-(3-Chloro-phenyl)-pyrrolo[2,1-f][1,2,4]triazin-2-ylamino]-phenyl}-piperidin-4-yl)-methanol]
12 |  |  | 100 to 1000 nM | < 100 nM | CN1CCN(CCn2cc(Nc3ncc4ccc(-c5cnn(C)c5)n4n3)cn2)CC1 [Example 1213, {1-[2-(4-Methyl-piperazin-1-yl)-ethyl]-1H-pyrazol-4-yl}-[7-(1-methyl-1H-pyrazol-4-yl)-pyrrolo[2,1-f][1,2,4]triazin-2-yl]-amine]
